Test results from patent publication US8148391B2 (Cephalon, Inc., priority 2006, dated 2012).

How the values were obtained:
[1] = biological target: T1, c-Met (cytoplasmic domain) (Homo sapiens, UniProt P08581); test: c-Met Kinase Assay (same methods as for ALK, with modifications); type: biochemical; conditions: 1 μM ATP (Km level), 10 ng/mL c-Met; read-out: cMet Activity (c-Met kinase inhibition, IC50 class)
T1 construct: 10 ng/mL c-Met (cytoplasmic domain, Invitrogen Corporation #PV3143); purchased Invitrogen Corporation PV3143
T1 sequence (P08581 956-1390 limits assumed): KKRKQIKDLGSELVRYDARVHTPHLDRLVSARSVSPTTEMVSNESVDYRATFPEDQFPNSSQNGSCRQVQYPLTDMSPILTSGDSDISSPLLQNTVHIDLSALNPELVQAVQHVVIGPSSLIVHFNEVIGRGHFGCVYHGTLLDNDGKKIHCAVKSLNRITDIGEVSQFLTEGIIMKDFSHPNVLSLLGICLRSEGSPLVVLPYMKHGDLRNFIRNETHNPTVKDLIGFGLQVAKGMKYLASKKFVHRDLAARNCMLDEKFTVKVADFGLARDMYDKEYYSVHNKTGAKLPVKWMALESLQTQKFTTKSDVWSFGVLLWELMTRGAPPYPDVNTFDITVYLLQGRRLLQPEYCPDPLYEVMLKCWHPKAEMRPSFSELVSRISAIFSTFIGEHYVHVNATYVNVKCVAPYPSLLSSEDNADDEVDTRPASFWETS
How it was run: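 Plates were coated with phospholipase C-γ substrate (10 μg/mL) in TBS, and the reaction was started with 10 ng/mL c-Met cytoplasmic domain and run 15 min at 37 °C. Phosphoproduct was detected with Eu-N1-labelled PT66 antibody. IC50 came from a variable-slope sigmoidal fit of percent inhibition vs log concentration.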

[2] = biological target: T2, baculovirus-expressed ALK (Homo sapiens, UniProt Q9UM73); test: ALK Kinase Assay (ELISA-type, time-resolved fluorescence); type: biochemical; conditions: 1 μM ATP (Km level), 30 ng/ml ALK, 37° C., 15 minutes; read-out: ALK Activity (ALK kinase inhibition, IC50 class)
T2 construct: host or cells: baculovirus expression system
T2 sequence (Q9UM73 19-1620): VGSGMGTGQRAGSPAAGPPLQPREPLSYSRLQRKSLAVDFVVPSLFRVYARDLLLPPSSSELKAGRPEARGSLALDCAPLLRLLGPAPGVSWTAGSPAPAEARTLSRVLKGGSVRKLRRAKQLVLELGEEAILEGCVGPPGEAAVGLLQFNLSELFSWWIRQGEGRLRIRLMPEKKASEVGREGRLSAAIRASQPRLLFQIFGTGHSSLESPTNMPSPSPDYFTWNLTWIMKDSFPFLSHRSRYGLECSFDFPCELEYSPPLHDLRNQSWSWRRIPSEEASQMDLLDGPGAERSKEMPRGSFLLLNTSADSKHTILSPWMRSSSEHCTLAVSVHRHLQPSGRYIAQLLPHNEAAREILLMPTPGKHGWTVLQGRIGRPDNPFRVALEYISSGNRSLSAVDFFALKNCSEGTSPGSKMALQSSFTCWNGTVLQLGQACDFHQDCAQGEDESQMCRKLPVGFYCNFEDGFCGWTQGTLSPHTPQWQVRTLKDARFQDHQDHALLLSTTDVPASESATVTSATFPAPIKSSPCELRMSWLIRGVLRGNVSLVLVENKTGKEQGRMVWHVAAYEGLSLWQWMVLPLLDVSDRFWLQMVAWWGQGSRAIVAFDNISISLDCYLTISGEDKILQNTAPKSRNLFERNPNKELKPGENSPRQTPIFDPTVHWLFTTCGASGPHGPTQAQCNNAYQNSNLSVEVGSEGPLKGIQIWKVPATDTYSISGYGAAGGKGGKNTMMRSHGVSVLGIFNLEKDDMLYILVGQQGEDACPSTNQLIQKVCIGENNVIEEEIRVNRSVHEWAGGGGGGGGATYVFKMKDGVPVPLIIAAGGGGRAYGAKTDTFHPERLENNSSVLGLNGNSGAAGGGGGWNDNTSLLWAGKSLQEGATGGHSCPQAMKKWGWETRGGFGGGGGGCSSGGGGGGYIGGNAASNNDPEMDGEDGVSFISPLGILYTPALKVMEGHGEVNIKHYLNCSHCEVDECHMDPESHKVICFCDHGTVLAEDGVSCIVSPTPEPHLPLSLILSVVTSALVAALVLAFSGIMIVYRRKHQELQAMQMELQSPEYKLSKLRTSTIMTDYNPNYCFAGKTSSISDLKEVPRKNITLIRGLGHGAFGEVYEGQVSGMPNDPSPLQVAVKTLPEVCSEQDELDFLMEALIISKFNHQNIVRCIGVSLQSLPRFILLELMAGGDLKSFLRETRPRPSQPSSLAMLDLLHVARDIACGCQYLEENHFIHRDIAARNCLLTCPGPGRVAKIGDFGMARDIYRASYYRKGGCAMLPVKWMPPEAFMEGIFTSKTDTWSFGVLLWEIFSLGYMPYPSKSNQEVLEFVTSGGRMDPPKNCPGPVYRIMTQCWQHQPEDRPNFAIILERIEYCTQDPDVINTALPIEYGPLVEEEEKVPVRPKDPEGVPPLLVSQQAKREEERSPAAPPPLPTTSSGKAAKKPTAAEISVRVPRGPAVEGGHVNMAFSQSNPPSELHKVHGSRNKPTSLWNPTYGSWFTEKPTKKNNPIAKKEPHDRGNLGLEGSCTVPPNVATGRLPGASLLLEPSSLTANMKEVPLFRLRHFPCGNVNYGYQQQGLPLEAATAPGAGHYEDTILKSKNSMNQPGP
How it was run: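 Plates coated with phospholipase C-γ substrate (10 μg/mL in TBS); reaction started with 30 ng/ml ALK and run 15 min at 37° C. Phosphorylated substrate detected with Eu-N1-labeled PT66 antibody. IC50 from sigmoidal variable-slope fit of percent inhibition vs log concentration.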

| SMILES | IC50 [1] [µM] | IC50 [2] [nM] |
| --- | --- | --- |
| CNC(=O)c1ccccc1Nc1nc(Nc2ccc3c(c2)CNC(=O)CCN3)ncc1Cl [Example 1302, 2-[5-Chloro-2-(4-oxo-1,2,3,4,5,6-hexahydro-benzo[b][1,5]diazocin-8-ylamino)-pyrimidin-4-ylamino]-N-methyl-benzamide] | < 0.1 | < 100 |
| CNS(=O)(=O)c1ccccc1Nc1nc(Nc2ccc3c(c2)CNC(=O)CCN3C(=O)C(F)(F)F)ncc1Cl [Example 1303, 2-{5-Chloro-2-[4-oxo-1-(2,2,2-trifluoro-acetyl)-1,2,3,4,5,6-hexahydro-benzo[b][1,5]diazocin-8-ylamino]-pyrimidin-4-ylamino}-N-methyl-benzenesulfonamide] | < 0.1 | < 100 |
| CNC(=O)c1ccccc1Nc1nc(Nc2ccc3c(c2)CNC(=O)CCN3C(C)=O)ncc1Cl [Example 1305, 2-[2-(1-Acetyl-4-oxo-1,2,3,4,5,6-hexahydro-benzo[b][1,5]diazocin-8-ylamino)-5-chloro-pyrimidin-4-ylamino]-N-methyl-benzamide] | < 0.1 | < 100 |
| CN1C(=O)OCCc2cc(Nc3ncc(Cl)c(Oc4c(F)cccc4OC4CCOC4)n3)ccc21 (stereo not drawn) [Example 1307, 2-{5-Chloro-4-[2-fluoro-6-(tetrahydro-furan-3-yloxy)-phenoxy]-pyrimidin-2-ylamino}-5-methyl-8,9-dihydro-5H-7-oxa-5-aza-benzocyclohepten-6-one] | 1 to 10 | 100 to 1000 |
| COCCN1CCc2ccc(Nc3ncc(Cl)c(Oc4c(F)cccc4OC4CCOC4)n3)cc2CC1 (stereo not drawn) [Example 1308, {5-Chloro-4-[2-fluoro-6-(tetrahydro-furan-3-yloxy)-phenoxy]-pyrimidin-2-yl}-[3-(2-methoxy-ethyl)-2,3,4,5-tetrahydro-1H-3-benzazepin-7-yl]-amine] | 1 to 10 | 100 to 1000 |
| CCN1C(=O)CCCc2c1ccc(Nc1ncc(Cl)c(Nc3ccc(N4CCN(C)CC4)cc3OC)n1)c2OC [Example 1311, 7-{5-Chloro-4-[2-methoxy-4-(4-methyl-piperazin-1-yl)-phenylamino]-pyrimidin-2-ylamino}-1-ethyl-6-methoxy-1,3,4,5-tetrahydro-benzo[b]azepin-2-one] | > 10 | < 100 |
| COc1cc2c(cc1Nc1ncc(Cl)c(N[C@H]3[C@@H](C(N)=O)[C@@H]4C=C[C@H]3C4)n1)C(C)(C)CCC(=O)N2 [Example 1312] | > 10 | < 100 |
| COc1cc2c(cc1Nc1ncc(Cl)c(N[C@H]3[C@@H](C(N)=O)[C@@H]4C=C[C@H]3C4)n1)C(C)(C)CCC(=O)N2C [Example 1313, (1S,2S,3R,4R)-3-[5-Chloro-2-(8-methoxy-1,5,5-trimethyl-2-oxo-2,3,4,5-tetrahydro-1H-benzo[b]azepin-7-ylamino)-pyrimidin-4-ylamino]-bicyclo[2.2.1]hept-5-ene-2-carboxylic acid amide] | > 10 | < 100 |
| CCN1C(=O)CCC(C)(C)c2cc(Nc3ncc(Cl)c(N[C@H]4[C@@H](C(N)=O)[C@@H]5C=C[C@H]4C5)n3)c(OC)cc21 [Example 1314, (1S,2S,3R,4R)-3-[5-Chloro-2-(1-ethyl-8-methoxy-5,5-dimethyl-2-oxo-2,3,4,5-tetrahydro-1H-benzo[b]azepin-7-ylamino)-pyrimidin-4-ylamino]-bicyclo[2.2.1]hept-5-ene-2-carboxylic acid amide] | > 10 | < 100 |
| COCCN1CCc2cc(Nc3ncc(Cl)c(N[C@H]4[C@@H](C(N)=O)[C@@H]5C=C[C@H]4C5)n3)c(OC)cc2CC1 [Example 1315, (1S,2S,3R,4R)-3-{5-Chloro-2-[8-methoxy-3-(2-methoxy-ethyl)-2,3,4,5-tetrahydro-1H-benzo[d]azepin-7-ylamino]-pyrimidin-4-ylamino}-bicyclo[2.2.1]hept-5-ene-2-carboxylic acid amide] | > 10 | < 100 |
| CCN1C(=O)CCCc2cc(Nc3ncc(Cl)c(Nc4ccccc4-n4cccn4)n3)c(OC)cc21 [Example 1317, 7-[5-Chloro-4-(2-pyrazol-1-yl-phenylamino)-pyrimidin-2-ylamino]-1-ethyl-8-methoxy-1,3,4,5-tetrahydro-benzo[b]azepin-2-one] | > 10 | < 100 |
| CCN1C(=O)CCCc2cc(Nc3ncc(Cl)c(Nc4ccccc4OC)n3)c(OC)cc21 [Example 1318, 7-[5-Chloro-4-(2-methoxy-phenylamino)-pyrimidin-2-ylamino]-1-ethyl-8-methoxy-1,3,4,5-tetrahydro-benzo[b]azepin-2-one] | > 10 | 100 to 1000 |
| CCN1C(=O)CCCc2c1ccc(Nc1ncc(Cl)c(Nc3ccccc3-n3cccn3)n1)c2OC [Example 1319, 7-[5-Chloro-4-(2-pyrazol-1-yl-phenylamino)-pyrimidin-2-ylamino]-1-ethyl-6-methoxy-1,3,4,5-tetrahydro-benzo[b]azepin-2-one] | > 10 | < 100 |
| COc1cc2c(cc1Nc1ncc(Cl)c(Nc3ccccc3-n3cccn3)n1)CCN(CC(=O)N(C)C)CC2 [Example 1320, 2-{7-[5-Chloro-4-(2-pyrazol-1-yl-phenylamino)-pyrimidin-2-ylamino]-8-methoxy-1,2,4,5-tetrahydro-benzo[d]azepin-3-yl}-N,N-dimethyl-acetamide] | > 10 | < 100 |
| COCCN1CCc2cc(Nc3ncc(Cl)c(Nc4ccccc4-n4cccn4)n3)c(OC)cc2CC1 [Example 1321, 5-Chloro-N*2*-[8-methoxy-3-(2-methoxy-ethyl)-2,3,4,5-tetrahydro-1H-benzo[d]azepin-7-yl]-N*4*-(2-pyrazol-1-yl-phenyl)-pyrimidine-2,4-diamine] | > 10 | < 100 |
| COCCN1CCc2cc(Nc3ncc(Cl)c(N[C@@H]4[C@H](C(N)=O)[C@H]5C=C[C@@H]4C5)n3)c(OC)cc2CC1 [Example 1322, (1R,2R,3S,4S)-3-{5-Chloro-2-[8-methoxy-3-(2-methoxy-ethyl)-2,3,4,5-tetrahydro-1H-benzo[d]azepin-7-ylamino]-pyrimidin-4-ylamino}-bicyclo[2.2.1]hept-5-ene-2-carboxylic acid amide] | > 10 | 1000 to 10000 |
| CN1C(=O)CCC(C)(C)c2cc(Nc3ncc(Cl)c(Nc4ccccc4-n4cccn4)n3)ccc21 [Example 1323, 7-[5-Chloro-4-(2-pyrazol-1-yl-phenylamino)-pyrimidin-2-ylamino]-1,5,5-trimethyl-1,3,4,5-tetrahydro-benzo[b]azepin-2-one] | 0.1 to 1 | < 100 |
| CN1C(=O)CCC(C)(C)c2cc(Nc3ncc(Cl)c(Nc4ccccc4S(=O)(=O)N(C)C)n3)ccc21 [Example 1325, 2-[5-Chloro-2-(1,5,5-trimethyl-2-oxo-2,3,4,5-tetrahydro-1H-benzo[b]azepin-7-ylamino)-pyrimidin-4-ylamino]-N,N-dimethyl-benzenesulfonamide] | 0.1 to 1 | < 100 |
| CC(C)S(=O)(=O)c1ccccc1Nc1nc(Nc2ccc3c(c2)C(C)(C)CCC(=O)N3C)ncc1Cl [Example 1329, 7-{5-Chloro-4-[2-(propane-2-sulfonyl)-phenylamino]-pyrimidin-2-ylamino}-1,5,5-trimethyl-1,3,4,5-tetrahydro-benzo[b]azepin-2-one] | < 0.1 | < 100 |
| CCN1C(=O)C(NC(=O)C(F)(F)F)CCc2c1ccc(Nc1ncc(Cl)c(N[C@H]3[C@@H](C(N)=O)[C@@H]4C=C[C@H]3C4)n1)c2OC (stereo partly drawn) [Example 1330, (1S,2S,3R,4R)-3-{5-Chloro-2-[1-ethyl-6-methoxy-2-oxo-3-(2,2,2-trifluoro-acetylamino)-2,3,4,5-tetrahydro-1H-benzo[b]azepin-7-ylamino]-pyrimidin-4-ylamino}-bicyclo[2.2.1]hept-5-ene-2-carboxylic acid amide] | > 10 | < 100 |
| CCN1C(=O)C(NC(=O)C(F)(F)F)CCc2c1ccc(Nc1ncc(Cl)c(Nc3ccccc3S(=O)(=O)C(C)C)n1)c2OC (stereo not drawn) [Example 1333, N-(7-{5-Chloro-4-[2-(propane-2-sulfonyl)-phenylamino]-pyrimidin-2-ylamino}-1-ethyl-6-methoxy-2-oxo-2,3,4,5-tetrahydro-1H-benzo[b]azepin-3-yl)-2,2,2-trifluoro-acetamide] | > 10 | < 100 |
| CCN1C(=O)C(NC(=O)C(F)(F)F)CCc2c1ccc(Nc1ncc(Cl)c(Nc3ccccc3S(=O)(=O)N(C)C)n1)c2OC (stereo not drawn) [Example 1334, N-{7-[5-Chloro-4-(2-dimethylsulfamoyl-phenylamino)-pyrimidin-2-ylamino]-1-ethyl-6-methoxy-2-oxo-2,3,4,5-tetrahydro-1H-benzo[b]azepin-3-yl}-2,2,2-trifluoro-acetamide] | > 10 | < 100 |
| CCN1C(=O)C(NC(=O)C(F)(F)F)CCc2c1ccc(Nc1ncc(Cl)c(N[C@@H]3CCCC[C@H]3NS(C)(=O)=O)n1)c2OC (stereo partly drawn) [Example 1335, N-{7-[5-Chloro-4-((1R,2R)-2-methanesulfonylamino-cyclohexylamino)-pyrimidin-2-ylamino]-1-ethyl-6-methoxy-2-oxo-2,3,4,5-tetrahydro-1H-benzo[b]azepin-3-yl}-2,2,2-trifluoro-acetamide] | > 10 | < 100 |
| CCN1C(=O)C(N)CCc2c1ccc(Nc1ncc(Cl)c(Nc3ccccc3S(=O)(=O)N(C)C)n1)c2OC (stereo not drawn) [Example 1336, 2-[2-(3-Amino-1-ethyl-6-methoxy-2-oxo-2,3,4,5-tetrahydro-1H-benzo[b]azepin-7-ylamino)-5-chloro-pyrimidin-4-ylamino]-N,N-dimethyl-benzenesulfonamide] | > 10 | < 100 |
